Results reported in paper PMC11093748, “De novo identification of CD4^+ T cell epitopes” (Nature Methods, 2024).

Legend:
Assay in all cases: Multiplexed TCR/library dropout screen, mean ES
Assay type in all cases: cell-based, mouse
TCR2 = details: Avg ES for all the replicates that contain that TCR (TCR2)
From the text: (§1) Finally, we sought to address two important aspects of antigen discovery techniques. First, we assessed whether SABR-II screens can directly read out the strength of TCR–pMHC binding. To that end, we selected six known BDC2.5 ligands across a range of ES values (Extended Data Fig. 9a) and we measured the functional avidity of their recognition by BDC2.5 TCR in vitro. Bone-marrow-derived dendritic cells were pulsed with a range of concentrations of peptides corresponding to the epitopes and used to present the peptides to BDC2.5 TCR-expressing 5KC cells. Secretion of mIL-2 was measured by ELISA and used to determine the functional avidity as EC50 (concentration of the peptide needed to induce half-maximal mIL-2) (Extended Data Fig. 9b). We observed that there was a modest negative correlation between the EC50 values of the epitopes and their ES values (Extended Data Fig. 9c). […] Second, we evaluated whether we could increase the throughput of SABR-II screens by multiplexing TCRs and libraries at the cellular level. We combined the two previously described I-Ag7 libraries in equal proportions according to their size and used it as a single library. We also employed a dropout strategy, in which a mixture of seven TCRs was screened in replicate, where one TCR was left out in each replicate. After single enrichment, we determined the mean ES of all replicates that contained a given TCR and used it to identify the cognate epitope of that TCR (Extended Data Fig. 10 and Supplementary Table 6). Using this strategy, we were able to successfully recapitulate the results for four out of four TCRs previously identified in individual screens. The use of such a strategy will greatly enhance the throughput or SABR-II screens by reducing the hands-on sort time from 1 h per TCR to 20 min per TCR.
(§2) For SABR library screens, 3 × 10^6 NFAT–GFP Jurkat cells expressing the SABR library were labeled with CellTrace Violet (BioLegend) according to the manufacturer’s protocol before incubation with 3 × 10^6 Jurkat cells expressing the TCR of interest. These mixtures were incubated in a six-well plate for 16–20 h. Cells were stained with anti-CD69-APC-Cy7 where indicated (BioLegend) and the top 1–2% of GFP^+CD69^+ cells were sorted for genomic DNA extraction, indexing and sequencing (see below). Multiplexed assays were scaled on a per-TCR basis (for example 3 × 10^6 for each of three TCRs against 9 × 10^6 library cells). For single SABR assays, unless otherwise defined, 5 × 10^5 SABR expressing NFAT–GFP Jurkat cells (or 5KC cells) were labeled with CellTrace Violet (BioLegend) according to the manufacturer’s protocol before incubation with 5 × 10^5 TCR-expressing Jurkat cells (or 5KC cells) in a round-bottom 96-well plate for 16–20 h. Cells were stained with anti-CD69-APC-Cy7 when indicated and acquired on the Attune NxT flow cytometer (Thermo Fisher Scientific). All flow analysis was performed using FlowJo (BD). For Daudi cell co-culture, 1 × 10^6 Jurkat cells expressing the TCR of interest were incubated with 1 × 10^6 Daudi cells expressing a SABR of interest for 3 days. On day 3, cells were labeled with anti-RT1B-PE and anti-Fas-APC-Cy7 before being acquired on the Attune NxT flow cytometer.
(§3) Genomic DNA was extracted from sorted cells immediately after sorting, using the PureLink genomic DNA extraction kit (Life Technologies). The integrated SABR vectors were amplified with KOD polymerase (Millipore) and two rounds of amplification. In the first round, IDT-UD-SABR-C2-F and IDT-UD-SABR-C2-R primers were used to amplify the epitope. In the second round, UDI0001-R and UDI0001-F primers (representative of index 1) were used to add Illumina unique dual indexes (UDIs) to the amplicons. A different UDI was used for each sample. The reactions were pooled and purified with the NucleoSpin gel and PCR purification kit (Takara). The purified PCR product was checked before sequencing using 2% agarose gel and subjected to sequencing on a HiSeq4000 (Fulgent Genetics). […]

TCR7 = details: two I-Ag7 libraries combined, mixture of seven TCRs, dropout replicates (n = 6)
From the text: as §1, §2, §3

TCR1 = details: two I-Ag7 libraries combined, mixture of seven TCRs, dropout replicates (n = 6); one biological experiment
From the text: as §1, §2, §3

TCR24 = details: Avg ES for all the replicates that contain that TCR (TCR24)
From the text: as §1, §2, §3

TCR5 = details: two I-Ag7 libraries combined, mixture of seven TCRs, dropout replicates (n = 6)
From the text: as §1, §2, §3

TCR37 = details: Avg ES for all the replicates that contain that TCR (TCR37)
From the text: as §1, §2, §3

TCR3 = details: two I-Ag7 libraries combined, mixture of seven TCRs, dropout replicates (n = 6)
From the text: as §1, §2, §3

Row | Sequence | ES for each dropout, LOO_TCR2 (TCR2) | Mean Dropout Enrichment Score (TCR7) | Mean Dropout Enrichment Score (TCR1) | ES for each dropout, LOO_TCR24 (TCR24) | Mean Dropout Enrichment Score (TCR5) | ES for each dropout, LOO_TCR37 (TCR37) | Mean Dropout Enrichment Score (TCR3)
1 | AAVEEGIVAGGGVTLL | 1.97e-6 | -1.2378e-6 | 9.635e-6 | 1.546e-6 | -4.831e-6 | 2.247e-6 | -1.302e-6
2 | AEKVRNLPAGHGLNAQ | -1.229e-5 | -3.038e-5 | -4.113e-5 | -1.89e-5 | -3.449e-5 | -2.944e-5 | -2.694e-5
3 | AGGVAVIKAGAATEV | 7.935e-6 | 2.296e-5 | 1.903e-5 | 2.636e-5 | 1.931e-5 | 1.413e-5 | 3.191e-5
4 | AKAAVEEGIVAGGGV | 1.371e-5 | -7.192e-6 | 1.526e-5 | 8.2968e-7 | 9.209e-6 | 7.483e-6 | 1.247e-5
5 | ALVREGLRNVAAGANP | -1.224e-5 | -1.224e-5 | -1.224e-5 | -1.224e-5 | -1.224e-5 | -1.224e-5 | -1.224e-5
